pIC50: −log10 of the molar value.
Molecular target: T1, V600E full-length B-Raf (Homo sapiens, UniProt P15056, V600E)
T1 construct: made in house; host or cells: Sf9 insect cells (baculovirus)
Test: B-Raf IC50 assay: incorporation of radio labeled phosphate from [γ-33P]ATP into FSBA-modified wild-type MEK
Assay type: biochemical
Description: Determining the activity of Raf in the sample is possible by a number of direct and indirect detection methods (US 2004/0082014). Activity of human recombinant B-Raf protein may be assessed in vitro by assay of the incorporation of radio labeled phosphate to recombinant MAP kinase (MEK), a known physiologic substrate of B-Raf, according to US 2004/0127496 and WO 03/022840. The activity/inhibition of V600E full-length B-Raf was estimated by measuring the incorporation of radio labeled phosphate from [γ-^33]ATP into FSBA-modified wild-type MEK (see Biological Example 1).
Activity of human recombinant B-Raf protein may be assessed in vitro by assay of the incorporation of radio labeled phosphate to recombinant MAP kinase (MEK), a known physiologic substrate of B-Raf, according to US 2004/0127496 and WO 03/022840. Catalytically active human recombinant B-Raf protein is obtained by purification from sf9 insect cells infected with a human B-Raf recombinant baculovirus expression vector.
The activity/inhibition of V600E full-length B-Raf was estimated by measuring the incorporation of radio labeled phosphate from [γ-^33]ATP into FSBA-modified wild-type MEK. The 30-μL, assay mixtures contained 25 mM Na Pipes, pH 7.2, 100 mM KCl, 10 mM MgCl2, 5 mM β-glycerophosphate, 100 μM Na Vanadate, 4 μM ATP, 500 nCi [γ-^33P]ATP, 1 μM FSBA-MEK and 20 nM V600E full-length B-Raf. Incubations were carried out at 22° C. in a Costar 3365 plate (Corning). Prior to the assay, the B-Raf and FSBA-MEK were preincubated together in assay buffer at 1.5× (20 μL of 30 nM and 1.5 μM, respectively) for 15 minutes, and the assay was initiated by the addition of 10 μL of […]. Following the 60-minute incubation, the assay mixtures were quenched by the addition of 100 μL of 25% TCA, the plate was mixed on a rotary shaker for 1 minute, and the product was captured on a Perkin-Elmer GF/B filter plate using a Tomtec Mach III Harvester. After sealing the bottom of the plate, 35 μL of Bio-Safe II (Research Products International) scintillation cocktail were added to each well and the plate was top-sealed and counted in a Topcount NXT (Packard).

[1] = 4 μM ATP, 60-minute incubation, representative data of multiple tests

T1 sequence (P15056 whole entry V600E): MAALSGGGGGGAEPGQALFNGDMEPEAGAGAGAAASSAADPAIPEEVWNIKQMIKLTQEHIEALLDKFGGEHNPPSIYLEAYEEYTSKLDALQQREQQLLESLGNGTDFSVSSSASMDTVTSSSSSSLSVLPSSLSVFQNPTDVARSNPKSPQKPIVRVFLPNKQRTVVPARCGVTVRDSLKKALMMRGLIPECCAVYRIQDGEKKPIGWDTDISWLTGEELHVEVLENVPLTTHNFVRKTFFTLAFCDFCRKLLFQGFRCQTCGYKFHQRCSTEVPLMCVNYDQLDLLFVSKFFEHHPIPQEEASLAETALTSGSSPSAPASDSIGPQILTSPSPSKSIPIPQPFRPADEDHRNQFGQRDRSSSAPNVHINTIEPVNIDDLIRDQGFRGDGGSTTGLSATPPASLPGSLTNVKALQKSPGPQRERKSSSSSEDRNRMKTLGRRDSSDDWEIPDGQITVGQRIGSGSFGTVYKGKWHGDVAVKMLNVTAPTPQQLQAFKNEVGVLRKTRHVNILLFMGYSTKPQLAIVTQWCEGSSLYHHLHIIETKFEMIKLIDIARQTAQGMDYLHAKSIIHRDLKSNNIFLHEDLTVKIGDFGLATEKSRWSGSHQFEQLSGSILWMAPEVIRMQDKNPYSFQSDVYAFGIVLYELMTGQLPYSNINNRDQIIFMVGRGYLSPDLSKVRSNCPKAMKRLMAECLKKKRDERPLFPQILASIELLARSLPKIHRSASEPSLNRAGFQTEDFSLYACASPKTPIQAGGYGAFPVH

COc1n[nH]c2ncc(NC(=O)c3c(C)ccc(OCc4ccc(F)cc4)c3F)cc12 [Example 71, 2-fluoro-3-(4-fluorobenzyloxy)-N-(3-methoxy-1H-pyrazolo[3,4-b]pyridin-5-yl)-6-methylbenzamide]
pIC50 [1]: 9.18 | pIC50 (bound stated): > 7.00

COc1n[nH]c2ncc(NC(=O)c3c(Cl)ccc(OCc4ccc(F)cc4)c3F)cc12 [Example 29, 6-chloro-2-fluoro-3-(4-fluorobenzyloxy)-N-(3-methoxy-1H-pyrazolo[3,4-b]pyridin-5-yl)benzamide]
pIC50 [1]: 9.19 | pIC50 (bound stated): > 7.00

COc1n[nH]c2ncc(NC(=O)c3c(Cl)ccc(OCc4ccc(Cl)cn4)c3F)cc12 [Example 45, 6-chloro-3-((5-chloropyridin-2-yl)methoxy)-2-fluoro-N-(3-methoxy-1H-pyrazolo[3,4-b]pyridin-5-yl)benzamide]
pIC50 [1]: 9.28 | pIC50 (bound stated): > 7.00

CCc1n[nH]c2ncc(NC(=O)c3c(Cl)ccc(OCc4ccccc4)c3F)cc12 [Example 6, 3-(benzyloxy)-6-chloro-N-(3-ethyl-1H-pyrazolo[3,4-b]pyridin-5-yl)-2-fluorobenzamide]
pIC50 [1]: 8.60 | pIC50 (bound stated): > 7.00

COc1n[nH]c2ncc(NC(=O)c3c(Cl)ccc(OCc4cnn(C)c4)c3F)cc12 [Example 70, 6-chloro-2-fluoro-N-(3-methoxy-1H-pyrazolo[3,4-b]pyridin-5-yl)-3-((1-methyl-1H-pyrazol-4-yl)methoxy)benzamide]
pIC50 [1]: 7.59 | pIC50 (bound stated): > 7.00

COc1n[nH]c2ncc(NC(=O)c3c(Cl)ccc(OCc4ccco4)c3F)cc12 [Example 54, 6-chloro-2-fluoro-3-(furan-2-ylmethoxy)-N-(3-methoxy-1H-pyrazolo[3,4-b]pyridin-5-yl)benzamide]
pIC50 [1]: 8.47 | pIC50 (bound stated): > 7.00

COc1n[nH]c2ncc(NC(=O)c3c(Cl)ccc(OCc4ccc(C(F)(F)F)cc4)c3F)cc12 [Example 19, 6-chloro-2-fluoro-N-(3-methoxy-1H-pyrazolo[3,4-b]pyridin-5-yl)-3-(4-(trifluoromethyl)benzyloxy)benzamide]
pIC50 [1]: 8.69 | pIC50 (bound stated): > 7.00

COc1n[nH]c2ncc(NC(=O)c3c(Cl)ccc(OCc4nccs4)c3F)cc12 [Example 53, 6-chloro-2-fluoro-N-(3-methoxy-1H-pyrazolo[3,4-b]pyridin-5-yl)-3-(thiazol-2-ylmethoxy)benzamide]
pIC50 [1]: 7.88 | pIC50 (bound stated): > 7.00

COc1n[nH]c2ncc(NC(=O)c3cccc(OCc4ccccc4)c3)cc12 [Example 1, 3-(benzyloxy)-N-(3-methoxy-1H-pyrazolo[3,4-b]pyridin-5-yl)benzamide]
pIC50 [1]: 6.37 | pIC50 (bound stated): > 6.30

COc1n[nH]c2ncc(NC(=O)c3c(Cl)ccc(OCc4ccc(I)cc4)c3F)cc12 [Example 47, 6-chloro-2-fluoro-3-(4-iodobenzyloxy)-N-(3-methoxy-1H-pyrazolo[3,4-b]pyridin-5-yl)benzamide]
pIC50 [1]: 8.38 | pIC50 (bound stated): > 7.00

O=C(Nc1cnc2[nH]nc(C(F)(F)F)c2c1)c1c(Cl)ccc(OCc2ccccc2)c1F [Example 8, 3-(benzyloxy)-6-chloro-2-fluoro-N-(3-(trifluoromethyl)-1H-pyrazolo[3,4-b]pyridin-5-yl)benzamide]
pIC50 [1]: 8.23 | pIC50 (bound stated): > 7.00

COc1n[nH]c2ncc(NC(=O)c3c(Cl)ccc(OCc4ccc(Cl)cc4F)c3F)cc12 [Example 66, 6-chloro-3-(4-chloro-2-fluorobenzyloxy)-2-fluoro-N-(3-methoxy-1H-pyrazolo[3,4-b]pyridin-5-yl)benzamide]
pIC50 [1]: 8.82 | pIC50 (bound stated): > 7.00

COc1n[nH]c2ncc(NC(=O)c3c(Cl)ccc(OCc4ccc5c(c4)OCO5)c3F)cc12 [Example 63, 3-(benzo[d][1,3]dioxol-5-ylmethoxy)-6-chloro-2-fluoro-N-(3-methoxy-1H-pyrazolo[3,4-b]pyridin-5-yl)benzamide]
pIC50 [1]: 8.77 | pIC50 (bound stated): > 7.00

Cc1n[nH]c2ncc(NC(=O)c3c(Cl)ccc(OCc4ccccc4)c3F)cc12 [Example 34, 3-(benzyloxy)-6-chloro-2-fluoro-N-(3-methyl-1H-pyrazolo[3,4-b]pyridin-5-yl)benzamide]
pIC50 [1]: 8.32 | pIC50 (bound stated): > 7.00

COc1n[nH]c2ncc(NC(=O)c3c(Cl)ccc(OCc4ccc(C)cn4)c3F)cc12 [Example 44, 6-chloro-2-fluoro-N-(3-methoxy-1H-pyrazolo[3,4-b]pyridin-5-yl)-3-((5-methylpyridin-2-yl)methoxy)benzamide]
pIC50 [1]: 9.19 | pIC50 (bound stated): > 7.00

COc1n[nH]c2ncc(NC(=O)c3c(Cl)ccc(OCc4ccc(F)cc4F)c3F)cc12 [Example 62, 6-chloro-3-(2,4-difluorobenzyloxy)-2-fluoro-N-(3-methoxy-1H-pyrazolo[3,4-b]pyridin-5-yl)benzamide]
pIC50 [1]: 8.84 | pIC50 (bound stated): > 7.00

COc1n[nH]c2ncc(NC(=O)c3c(F)ccc(OCc4ccccc4)c3F)cc12 [Example 26, 3-(benzyloxy)-2,6-difluoro-N-(3-methoxy-1H-pyrazolo[3,4-b]pyridin-5-yl)benzamide]
pIC50 [1]: 8.62 | pIC50 (bound stated): > 7.00

CCc1ccc(COc2ccc(Cl)c(C(=O)Nc3cnc4[nH]nc(OC)c4c3)c2F)cc1 [Example 55, 6-chloro-3-(4-ethylbenzyloxy)-2-fluoro-N-(3-methoxy-1H-pyrazolo[3,4-b]pyridin-5-yl)benzamide]
pIC50 [1]: 8.83 | pIC50 (bound stated): > 7.00

COc1n[nH]c2ncc(NC(=O)c3c(Cl)ccc(OCc4ccc5c(c4)CCO5)c3F)cc12 [Example 65]
pIC50 [1]: 9.20 | pIC50 (bound stated): > 7.00

COc1n[nH]c2ncc(NC(=O)c3c(F)cc(F)c(OCc4ccccc4)c3F)cc12 [Example 32, 3-(benzyloxy)-2,4,6-trifluoro-N-(3-methoxy-1H-pyrazolo[3,4-b]pyridin-5-yl)benzamide]
pIC50 [1]: 7.46 | pIC50 (bound stated): > 7.00

CN(C)c1n[nH]c2ncc(NC(=O)c3c(Cl)ccc(OCc4ccccc4)c3F)cc12 [Example 7, 3-(benzyloxy)-6-chloro-N-(3-(dimethylamino)-1H-pyrazolo[3,4-b]pyridin-5-yl)-2-fluorobenzamide]
pIC50 [1]: 8.32 | pIC50 (bound stated): > 7.00

CN(C)CCOc1n[nH]c2ncc(NC(=O)c3c(Cl)ccc(OCc4ccccc4)c3F)cc12 [Example 17, 3-(benzyloxy)-6-chloro-N-(3-(2-(dimethylamino)ethoxy)-1H-pyrazolo[3,4-b]pyridin-5-yl)-2-fluorobenzamide]
pIC50 [1]: 7.96 | pIC50 (bound stated): > 7.00

COc1n[nH]c2ncc(NC(=O)c3c(Cl)ccc(OCc4cscn4)c3F)cc12 [Example 37, 6-chloro-2-fluoro-N-(3-methoxy-1H-pyrazolo[3,4-b]pyridin-5-yl)-3-(thiazol-4-ylmethoxy)benzamide]
pIC50 [1]: 8.42 | pIC50 (bound stated): > 7.00

COc1n[nH]c2ncc(NC(=O)c3cc(OCc4ccccc4)ccc3C)cc12 [Example 27, 5-(benzyloxy)-N-(3-methoxy-1H-pyrazolo[3,4-b]pyridin-5-yl)-2-methylbenzamide]
pIC50 [1]: 8.53 | pIC50 (bound stated): > 7.00

COc1n[nH]c2ncc(NC(=O)c3c(Cl)ccc(OCc4ccc(C)nc4)c3F)cc12 [Example 46, 6-chloro-2-fluoro-N-(3-methoxy-1H-pyrazolo[3,4-b]pyridin-5-yl)-3-((6-methylpyridin-3-yl)methoxy)benzamide]
pIC50 [1]: 8.22 | pIC50 (bound stated): > 7.00

COc1n[nH]c2ncc(NC(=O)c3c(Cl)ccc(OCc4ccccc4Cl)c3F)cc12 [Example 60, 6-chloro-3-(2-chlorobenzyloxy)-2-fluoro-N-(3-methoxy-1H-pyrazolo[3,4-b]pyridin-5-yl)benzamide]
pIC50 [1]: 8.89 | pIC50 (bound stated): > 7.00

COc1n[nH]c2ncc(NC(=O)c3c(Cl)ccc(OCc4ccc5ncccc5c4)c3F)cc12 [Example 69, 6-chloro-2-fluoro-N-(3-methoxy-1H-pyrazolo[3,4-b]pyridin-5-yl)-3-(quinolin-6-ylmethoxy)benzamide]
pIC50 [1]: 8.78 | pIC50 (bound stated): > 7.00

COc1n[nH]c2ncc(NC(=O)c3c(Cl)ccc(OCc4cccc(CN5CCOCC5)c4)c3F)cc12 [Example 64, 6-chloro-2-fluoro-N-(3-methoxy-1H-pyrazolo[3,4-b]pyridin-5-yl)-3-(3-(morpholinomethyl)benzyloxy)benzamide]
pIC50 [1]: 8.03 | pIC50 (bound stated): > 7.00

COc1n[nH]c2ncc(NC(=O)c3c(Cl)ccc(OCc4ccc(Br)cc4)c3F)cc12 [Example 48, 3-(4-bromobenzyloxy)-6-chloro-2-fluoro-N-(3-methoxy-1H-pyrazolo[3,4-b]pyridin-5-yl)benzamide]
pIC50 [1]: 8.77 | pIC50 (bound stated): > 7.00

Reference: patent US20120157452A1, “1H-PYRAZOLO[3,4-B] PYRIDINE COMPOUNDS FOR INHIBITING RAF KINASE” (GENENTECH, INC., priority 2009, published 2012)
